How the values were obtained:
[1] = Octanol-water partitioning coefficients of cation paired hyaluronic acid (HA); format: physicochemical; settings: cation paired with HA
Protocol: 5 mL ddH2O may be mixed overnight at room temperature with 5 mL octanol. A complex containing a macromolecular anion complexed with sodium ions or with cations with alkyl chains is then added to the mixture and again allowed to mix overnight at room temperature in the dark. After overnight incubation, the solution is centrifuged to separate the octanol layer and water layer. The concentration of the macromolecular anion present in each layer is quantified by UV-Vis spectroscopy, or fluorescence spectroscopy, using, for example, a SAFIRE, XFLUOR4, V4.50 microplate reader (Tecan Group Ltd, Morrisville, N.Y.). For detection of siRNA, the fluorescence detection may be performed at an excitation of 485 nm and an emission of 520 nm, and the method may be validated for linearity, accuracy, and precision. Log Po/w may be calculated as the logarithm of the ratio of fluorescence in the octanol layer compared to the water layer.
Cation paired HA was prepared according to methods described in Example 1.

HEKa cells = assay: Biocompatibility in cell culture, MTT Cell Proliferation Assay; format: cell-based, human; settings: equal concentrations, 4 hours; differences not statistically significant (p >0.05)
Protocol: All cell culture materials were acquired from Life Technologies (Grand Island, N.Y.). Human adult epidermal keratinocytes were cultured in EpiLife Medium supplemented with Human Keratinocyte Growth Supplement, 25 U/mL penicillin, 25 μg/mL streptomycin, and 50 μg/mL neomycin. Cultures were grown at 37° C. with 5% CO2.
Cells were seeded in a 96-well microplate (Corning Inc., Corning, N.Y.) and were allowed to attach and proliferate. Once cells reached ˜80% confluency, the media was removed and FAM-siRNA, robed-FAM-siRNA, or benzyl dimethyl alkyl ammonium chloride salts in media was added. Media alone was used as a control. Cells were incubated with test solution for 4 hours at 37° C. and 5% CO2. After incubation, test solutions were removed, cells were washed with HBSS, and fresh media was added to each well. Cells were allowed to proliferate overnight before being assessed for viability using the MTT Cell Proliferation Assay (ATCC, Manassas, Va.). Viability was determined according to the manufacturer's recommended protocol using a SAFIRE, XFLUOR4, V4.50 microplate reader (Tecan Group Ltd, Morrisville, N.Y.).

[2] = chloride salt; Hansch et al. 1995; cited from earlier work

LogPo/w [1]	SMILES	toxicity of free salts versus robed with siRNAs (HEKa cells)	Log Po/w, Chloride [2]
−3.32	C[N+](C)(C)CCO	–	–
2.14	CCCCCCCCCCCCCC[N+](C)(C)C.[Br-]	–	–
–	CCCCCCCC[N+](C)(C)Cc1ccccc1 [BDOA chloride, benzyl dimethyl octyl ammonium]	more toxic as free salts	–
–	CCCCCCCCCCCCCCCCCC[N+](C)(C)Cc1ccccc1 [BDSA chloride, benzyl dimethyl stearyl ammonium]	more toxic as free salts	3.23^3
–	CCCCCCCCCCCCCC[N+](C)(C)Cc1ccccc1 [BDTA chloride, benzyl dimethyl tetradecyl ammonium]	more toxic as free salts	1.81^2

Source: US20210162050A1, “TOPICAL FORMULATIONS BASED ON IONIC SPECIES FOR SKIN TREATMENT” (The Regents of the University of California, priority 2016, published 2021)
